Measured values taken from US9434711B2 (Janssen Pharmaceutica, NV, priority 2007, dated 2016).

Biological target: canine TRPM8 (Canis lupus familiaris, UniProt Q1A7N1)
Test: In Vitro Canine TRPM8 Functional Assay (Ca2+ fluorescence, icilin activation)
Type: cell-based
Settings: for IC50: HEK293 cells stably expressing canine TRPM8, icilin activation, eight-point dose-response, read-out: IC50; for inhibition at 0.5 µM: compound at 0.5 μM, canine TRPM8, icilin activation, read-out: % Inh @ 0.5
Procedure: The functional activity of compounds of the formula (I) was determined by measuring changes in intracellular calcium concentration using a Ca^2+-sensitive fluorescent dye. The changes in fluorescent signal were monitored by a fluorescence plate reader, either a FLIPR™ (Molecular Devices) or FDSS (Hamamatsu).
At 24 hrs prior to assay, HEK293 cells stably expressing canine TRPM8 were seeded in culture medium in black wall, clear-base poly-D-lysine coated 384-well plates (BD Biosciences, NJ, USA) and grown overnight in 5% CO2 at 37° C. On assay day, growth media was removed and cells were loaded with Calcium 3 Dye (Molecular Devices) for 35 min at 37° C., under 5% CO2 and then for 25 min at room temperature and atmosphere. Subsequently, cells were tested for agonist-induced increases in intracellular Ca^2+ levels using FLIPR™ or FDSS. Cells were challenged with a compound of the Formula (I) (at varying concentrations) and intracellular Ca^2+ was measured for 5 min prior to the addition of icilin to all wells to achieve a final concentration that produces approximately an 80% maximal response. EC50 or IC50 values for compounds of the present invention were determined from eight-point dose-response studies. Curves were generated using the average of quadruplicate wells for each data point.

Sequence of canine TRPM8 (Q1A7N1 1-1104): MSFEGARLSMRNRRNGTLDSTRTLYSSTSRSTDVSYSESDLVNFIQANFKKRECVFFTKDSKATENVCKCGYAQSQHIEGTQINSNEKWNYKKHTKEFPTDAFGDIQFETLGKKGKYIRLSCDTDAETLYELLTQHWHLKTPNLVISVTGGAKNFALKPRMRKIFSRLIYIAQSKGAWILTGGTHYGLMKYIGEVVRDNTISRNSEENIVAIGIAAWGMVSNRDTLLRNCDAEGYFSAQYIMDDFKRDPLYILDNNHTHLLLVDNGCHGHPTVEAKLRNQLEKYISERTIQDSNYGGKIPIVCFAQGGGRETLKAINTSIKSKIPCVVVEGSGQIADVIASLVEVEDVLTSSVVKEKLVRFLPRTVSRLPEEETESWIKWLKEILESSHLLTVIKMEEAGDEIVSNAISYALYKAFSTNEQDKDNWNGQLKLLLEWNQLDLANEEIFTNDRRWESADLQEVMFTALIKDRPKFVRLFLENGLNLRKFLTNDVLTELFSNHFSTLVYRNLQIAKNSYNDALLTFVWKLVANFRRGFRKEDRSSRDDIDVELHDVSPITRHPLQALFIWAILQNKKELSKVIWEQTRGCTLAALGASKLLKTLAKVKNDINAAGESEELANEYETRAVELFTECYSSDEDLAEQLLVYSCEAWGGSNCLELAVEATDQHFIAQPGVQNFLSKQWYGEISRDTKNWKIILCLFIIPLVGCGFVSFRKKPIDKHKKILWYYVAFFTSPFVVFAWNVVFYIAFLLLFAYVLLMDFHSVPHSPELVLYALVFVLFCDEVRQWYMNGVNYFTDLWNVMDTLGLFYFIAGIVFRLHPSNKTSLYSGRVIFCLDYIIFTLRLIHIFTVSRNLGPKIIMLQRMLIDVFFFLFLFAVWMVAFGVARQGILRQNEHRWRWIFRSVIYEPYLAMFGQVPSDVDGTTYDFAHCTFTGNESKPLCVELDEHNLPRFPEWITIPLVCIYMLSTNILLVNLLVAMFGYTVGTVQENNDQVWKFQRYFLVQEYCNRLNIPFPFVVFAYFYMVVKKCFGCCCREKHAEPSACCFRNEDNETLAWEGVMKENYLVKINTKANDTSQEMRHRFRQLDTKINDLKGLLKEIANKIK

Row | Structure (SMILES) | IC50 [nM] | inhibition at 0.5 µM [%]
1 | O=S(=O)(c1ccccc1)N(Cc1ccc(F)cc1)c1sc2ccccc2c1Cl [Compound 4, N-(3-Chloro-benzo[b]thiophen-2-yl)-N-(4-fluoro-benzyl)-benzenesulfonamide] | 4 | 97
2 | O=S(=O)(c1ccccc1)N(Cc1cccc2cccnc12)c1sc2ccccc2c1Cl [Compound 5, N-(3-Chloro-benzo[b]thiophen-2-yl)-N-quinolin-8-ylmethyl-benzenesulfonamide] | 63 | 97
3 | O=S(=O)(c1ccccc1)N(Cc1ccc(OC(F)(F)F)cc1)c1sc2ccccc2c1Cl [Compound 6, N-(3-Chloro-benzo[b]thiophen-2-yl)-N-(4-trifluoromethoxy-benzyl)-benzenesulfonamide] | 11.3 | 99
4 | O=S(=O)(c1ccccc1)N(Cc1ccc(C(F)(F)F)cc1)c1sc2ccccc2c1Cl [Compound 8, N-(3-Chloro-benzo[b]thiophen-2-yl)-N-(4-trifluoromethyl-benzyl)-benzenesulfonamide] | 10 | 99
5 | Cc1c(N(Cc2cccc3cccnc23)S(=O)(=O)c2cn(C)cn2)sc2ccccc12 [Compound 10, N-(3-Methyl-benzo[b]thiophen-2-yl)-N-(quinolin-8-ylmethyl)-1-methyl-1H-imidazole-4-sulfonamide] | 229 | 89
6 | Cc1c(N(Cc2ccc(OC(F)(F)F)cc2)S(=O)(=O)c2cn(C)cn2)sc2ccccc12 [Compound 11, N-(3-Methyl-benzo[b]thiophen-2-yl)-N-(4-trifluoromethoxy-benzyl)-1-methyl-1H-imidazole-4-sulfonamide] | 33 | 97
7 | Cc1c(N(Cc2ccc(OC(F)(F)F)cc2)S(=O)(=O)c2ccsc2)sc2ccccc12 [Compound 16, N-(3-Methyl-benzo[b]thiophen-2-yl)-N-(4-trifluoromethoxy-benzyl)-thiophene-3-sulfonamide] | 6 | 99
8 | Cc1c(N(Cc2cccc3cccnc23)S(=O)(=O)c2ccsc2)sc2ccccc12 [Compound 17, N-(3-Methyl-benzo[b]thiophen-2-yl)-N-(quinolin-8-ylmethyl)-thiophene-3-sulfonamide] | 22 | 97
9 | Cc1c(N(Cc2cccc3cccnc23)S(=O)(=O)c2cc3ccccc3s2)sc2ccccc12 [Compound 19, N-(3-Methyl-benzo[b]thiophen-2-yl)-N-(quinolin-8-ylmethyl)-benzo[b]thiophene-2-sulfonamide] | – | 58
10 | Cc1c(N(Cc2ccc(OC(F)(F)F)cc2)S(=O)(=O)c2cccc3cccnc23)sc2ccccc12 [Compound 21, N-(3-Methyl-benzo[b]thiophen-2-yl)-N-(4-trifluoromethoxy-benzyl)-quinoline-8-sulfonamide] | 15 | 98
11 | Cc1c(N(Cc2cccc3cccnc23)S(=O)(=O)c2cccc3cccnc23)sc2ccccc12 [Compound 22, N-(3-Methyl-benzo[b]thiophen-2-yl)-N-(quinolin-8-ylmethyl)-quinoline-8-sulfonamide] | 32 | 98
12 | O=S(=O)(c1ccccc1)N(Cc1cccc(F)c1)c1sc2ccccc2c1Cl [Compound 23, N-(3-Chloro-benzo[b]thiophen-2-yl)-N-(3-fluoro-benzyl)-benzenesulfonamide] | 26 | 99
13 | Cc1c(N(Cc2ccc(OC(F)(F)F)cc2)S(=O)(=O)c2cccc3cnccc23)sc2ccccc12 [Compound 28, N-(3-Methyl-benzo[b]thiophen-2-yl)-N-(4-trifluoromethoxy-benzyl)-isoquinoline-5-sulfonamide] | 32 | 100
14 | Cc1c(N(Cc2cccc3cccnc23)S(=O)(=O)c2cccc3cnccc23)sc2ccccc12 [Compound 29, N-(3-Methyl-benzo[b]thiophen-2-yl)-N-(quinolin-8-ylmethyl)-isoquinoline-5-sulfonamide] | 33 | 99
15 | Cc1c(N(Cc2ccc(OC(F)(F)F)cc2)S(=O)(=O)c2ccc3ncccc3c2)sc2ccccc12 [Compound 31, N-(3-Methyl-benzo[b]thiophen-2-yl)-N-(4-trifluoromethoxy-benzyl)-quinoline-6-sulfonamide] | 22 | 100
16 | Cc1c(N(Cc2cccc3cccnc23)S(=O)(=O)c2ccc3ncccc3c2)sc2ccccc12 [Compound 32, N-(3-Methyl-benzo[b]thiophen-2-yl)-N-(quinolin-8-ylmethyl)-quinoline-6-sulfonamide] | 37 | 100
17 | Cc1c(N(Cc2ccc(C(F)(F)F)c(F)c2)S(=O)(=O)c2cccs2)sc2ccccc12 [Compound 38, N-(3-Fluoro-4-trifluoromethyl-benzyl)-N-(3-methyl-benzo[b]thiophen-2-yl)-thiophene-2-sulfonamide] | 3 | 97

The next lines start with the values.

Row | IC50 [nM] | inhibition at 0.5 µM [%] | Structure (SMILES)
18 | 24 | 100 | O=S(=O)(c1ccccc1)N(Cc1ccc(F)c(F)c1)c1cc2ccccc2s1 [Compound 1, N-Benzo[b]thiophen-2-yl-N-(3,4-difluoro-benzyl)-benzenesulfonamide]
19 | 35 | 98 | O=S(=O)(c1ccccc1)N(Cc1cccc(F)c1)c1cc2ccccc2s1 [Compound 3, N-Benzo[b]thiophen-2-yl-N-(3-fluoro-benzyl)-benzenesulfonamide]
20 | 47 | 98 | O=S(=O)(c1ccccn1)N(Cc1ccc(F)c(F)c1)c1cc2ccccc2s1 [Compound 9, N-(Benzo[b]thiophen-2-yl)-N-(3,4-difluoro-benzyl)-pyridine-2-sulfonamide]
21 | 6 | 97 | Cc1c(N(Cc2ccc(F)c(F)c2)S(=O)(=O)c2cccnc2)sc2ccccc12 [Compound 12, N-(3,4-Difluoro-benzyl)-N-(3-methyl-benzo[b]thiophen-2-yl)-pyridine-3-sulfonamide]
22 | 81 | 94 | Cc1c(N(Cc2ccc(F)c(F)c2)S(=O)(=O)c2cc3ccccc3s2)sc2ccccc12 [Compound 18, N-(3,4-Difluoro-benzyl)-N-(3-methyl-benzo[b]thiophen-2-yl)-benzo[b]thiophene-2-sulfonamide]
23 | 6 | 98 | Cc1c(N(Cc2ccc(F)c(F)c2)S(=O)(=O)c2cccc3cccnc23)sc2ccccc12 [Compound 20, N-(3,4-Difluoro-benzyl)-N-(3-methyl-benzo[b]thiophen-2-yl)-quinoline-8-sulfonamide]
24 | 8.8 | 100 | O=S(=O)(c1ccccc1)N(Cc1ccc(F)c(F)c1)c1sc2ccccc2c1Cl [Compound 24, N-(3-Chloro-benzo[b]thiophen-2-yl)-N-(3,4-difluoro-benzyl)-benzenesulfonamide]
25 | 21 | 99 | COc1cccc(S(=O)(=O)N(Cc2ccc(F)c(F)c2)c2sc3ccccc3c2C)c1 [Compound 25, N-(3,4-Difluoro-benzyl)-N-(3-methyl-benzo[b]thiophen-2-yl)-3-methoxy-benzenesulfonamide]
26 | 20 | 98 | COc1ccc(S(=O)(=O)N(Cc2ccc(F)c(F)c2)c2sc3ccccc3c2C)cc1 [Compound 26, N-(3,4-Difluoro-benzyl)-N-(3-methyl-benzo[b]thiophen-2-yl)-4-methoxy-benzenesulfonamide]
27 | 20 | 99 | Cc1c(N(Cc2ccc(F)c(F)c2)S(=O)(=O)c2cccc3cnccc23)sc2ccccc12 [Compound 27, N-(3,4-Difluoro-benzyl)-N-(3-methyl-benzo[b]thiophen-2-yl)-isoquinoline-5-sulfonamide]
28 | 12 | 100 | Cc1c(N(Cc2ccc(F)c(F)c2)S(=O)(=O)c2ccc3ncccc3c2)sc2ccccc12 [Compound 30, N-(3,4-Difluoro-benzyl)-N-(3-methyl-benzo[b]thiophen-2-yl)-quinoline-6-sulfonamide]
29 | 57.4 | 100 | O=S(=O)(c1cccnc1)N(Cc1ccc(F)c(F)c1)c1cc2ccccc2s1 [Compound 33, N-(Benzo[b]thiophen-2-yl)-N-(3,4-difluoro-benzyl)-pyridine-3-sulfonamide]
30 | 184 | 98 | CS(=O)(=O)N(Cc1ccc(F)c(F)c1)c1cc2ccccc2s1 [Compound 34, N-Benzo[b]thiophen-2-yl-N-(3,4-difluoro-benzyl)-methanesulfonamide]
31 | 60.8 | 100 | CCS(=O)(=O)N(Cc1ccc(F)c(F)c1)c1cc2ccccc2s1 [Compound 35, N-(Benzo[b]thiophen-2-yl)-N-(3,4-difluoro-benzyl)-ethanesulfonamide]
32 | 77.1 | 98 | CCCS(=O)(=O)N(Cc1ccc(F)c(F)c1)c1cc2ccccc2s1 [Compound 36, N-(Benzo[b]thiophen-2-yl)-N-(3,4-difluoro-benzyl)-propane-1-sulfonamide]
33 | 98.3 | 96 | CCCCS(=O)(=O)N(Cc1ccc(F)c(F)c1)c1cc2ccccc2s1 [Compound 37, N-(Benzo[b]thiophen-2-yl)-N-(3,4-difluoro-benzyl)-butane-1-sulfonamide]
